The numbers were not newly measured in patent publication US8357659B2, “Method of treating pain or itching with APETx2 peptide toxin” (priority 2008, dated 2013), which cites them from elsewhere.

pIC50: −log10 of the molar value.

The target in one data set is T1, ASIC3 (Rattus norvegicus, UniProt O35240).
T1 sequence (O35240 1-533): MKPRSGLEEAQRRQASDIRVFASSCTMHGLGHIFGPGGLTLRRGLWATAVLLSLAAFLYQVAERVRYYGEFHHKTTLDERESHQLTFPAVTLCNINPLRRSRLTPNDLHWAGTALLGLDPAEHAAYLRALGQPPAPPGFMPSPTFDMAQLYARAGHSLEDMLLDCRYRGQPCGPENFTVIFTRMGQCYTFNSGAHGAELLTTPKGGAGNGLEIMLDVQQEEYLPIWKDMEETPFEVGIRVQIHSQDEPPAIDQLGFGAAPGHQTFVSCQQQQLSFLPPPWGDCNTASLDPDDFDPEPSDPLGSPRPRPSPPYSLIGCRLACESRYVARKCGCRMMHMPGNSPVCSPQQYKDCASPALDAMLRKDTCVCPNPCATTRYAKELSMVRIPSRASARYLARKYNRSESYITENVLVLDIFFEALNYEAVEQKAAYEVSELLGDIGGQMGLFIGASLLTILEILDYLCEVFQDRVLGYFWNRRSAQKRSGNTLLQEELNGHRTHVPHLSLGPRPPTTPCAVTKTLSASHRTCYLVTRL
The following applies: cited from earlier work.

The target in a further data set is T2, ASIC1a (Rattus norvegicus, UniProt P55926).
T2 sequence (P55926 1-526): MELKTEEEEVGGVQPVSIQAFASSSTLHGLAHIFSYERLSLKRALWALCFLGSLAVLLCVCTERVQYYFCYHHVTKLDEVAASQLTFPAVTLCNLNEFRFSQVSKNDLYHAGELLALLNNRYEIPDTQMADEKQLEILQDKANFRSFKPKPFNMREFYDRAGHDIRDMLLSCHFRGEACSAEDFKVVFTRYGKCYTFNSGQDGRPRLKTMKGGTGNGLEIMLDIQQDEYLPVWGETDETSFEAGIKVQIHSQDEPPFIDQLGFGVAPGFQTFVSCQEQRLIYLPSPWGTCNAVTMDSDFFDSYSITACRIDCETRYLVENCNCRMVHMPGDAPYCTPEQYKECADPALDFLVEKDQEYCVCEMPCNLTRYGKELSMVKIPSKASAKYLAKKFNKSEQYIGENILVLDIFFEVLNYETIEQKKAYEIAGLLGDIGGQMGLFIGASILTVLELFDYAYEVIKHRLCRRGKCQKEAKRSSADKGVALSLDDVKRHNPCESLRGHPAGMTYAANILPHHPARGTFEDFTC
As to conditions: cited from earlier work.

The target in a further data set is T3, ASIC1b (Rattus norvegicus, UniProt P55926).
T3 sequence (P55926 1-559 isoform P55926-3): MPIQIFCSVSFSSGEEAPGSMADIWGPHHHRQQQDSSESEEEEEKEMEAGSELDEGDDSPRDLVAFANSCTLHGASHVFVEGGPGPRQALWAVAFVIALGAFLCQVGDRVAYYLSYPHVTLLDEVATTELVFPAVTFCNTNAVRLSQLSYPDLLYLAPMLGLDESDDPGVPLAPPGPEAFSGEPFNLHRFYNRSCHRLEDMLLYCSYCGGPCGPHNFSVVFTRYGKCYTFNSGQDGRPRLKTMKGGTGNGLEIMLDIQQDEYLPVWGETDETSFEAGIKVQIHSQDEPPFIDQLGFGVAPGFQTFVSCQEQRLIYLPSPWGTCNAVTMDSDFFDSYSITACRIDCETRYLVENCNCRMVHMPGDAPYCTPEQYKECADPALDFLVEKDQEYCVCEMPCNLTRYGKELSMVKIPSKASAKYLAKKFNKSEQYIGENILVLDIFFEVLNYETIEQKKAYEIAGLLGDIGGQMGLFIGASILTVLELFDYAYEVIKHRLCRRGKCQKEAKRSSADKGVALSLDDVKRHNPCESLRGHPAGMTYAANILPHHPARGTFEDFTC
As to conditions: cited from earlier work.

Another data set addresses T4, heteromer ASIC1b+3 (Rattus norvegicus, UniProt O35240+P55926).
T4 sequence (P55926 1-559 isoform P55926-3): T3 sequence (P55926 1-559 isoform P55926-3)
T4 sequence (O35240 1-533): T1 sequence (O35240 1-533)
The following applies: relative to ASIC3 / ASIC2b+3; cited from earlier work.

Regarding “peptide of 42 amino acids (SEQ ID NO: 3), three disulphide bonds, from sea anemone Anthopleura elegantissima; blocks ASIC3 [APETx2]”, on ASIC3 (sustained current), the “effect on the ASIC3 sustained current” value is given as “without affecting”. Also, on ASIC3 (transient current, reversible block, read-out: IC50 for inhibition of the ASIC3 transient current), the pIC50 was 7.20. Moreover, the “effect on ASIC1a isoform” value on ASIC1a is reported as “does not have any effect”. The “effect on ASIC1b isoform” value on ASIC1b is on record as “does not have any effect”. The “affinity for the heteromer ASIC1b+3” value on heteromer ASIC1b+3 is “less affinity”.
